For 19 compounds, viability and minimum viability results are on record in PubChem BioAssay AID2286 (Southern Research Specialized Biocontainment Screening …, 2010).

Activity calls are given as the source filed them.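 Rule for the calls: active = minimum cell viability of 80% or lower across the dose range, counted as toxic; inactive = minimum cell viability above 80%.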

A word on the viability: it is a read-out of living cells in per cent, often relative to untreated cells.

The nature of the assay: viability loss in fusion assay cells – cell-based, MAGI and MAGI-HeLa co-culture, cytotoxicity control for HIV-1 fusion inhibitor project, dose response (AID 2286).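 For all read-outs here: cells exposed to compound for at least 64 h before ATP readout; 100% = median of DMSO vehicle wells with no ATP signal meaning 0%.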 As to conditions: MAGI-CCR5 cells viability, CellTiter-Glo ATP luminescence; for minimum viability: measured here: MAGI minimum viability across doses. (Cellular ATP, detected with luciferase, serves as a proxy for viable cell number.)

Setting [1] is: MAGI-HeLa co-culture viability, at 50 µM, stronger effect = lower value.
Where [2] appears, read: at 12.5 µM, stronger effect = lower value.
The mark [3] stands for this setting: at 1.56 µM, stronger effect = lower value.

As to `CCc1nnc(NS(=O)(=O)c2ccc(N/C=C(\C=O)c3nc4cc(Cl)ccc4o3)cc2)s1`, the viability reads like this: under setting [1], 99.2%; (at 50 µM (top of the series)) 90.2% (inactive). The minimum viability under setting [2] stood at 84.6%.
Turning to `O=C(Nc1ccc(Br)cc1C(=O)O)c1ccc2c(c1)C(=O)N(Cc1ccccc1)C2=O`, the viability runs as follows: under setting [1], 101%; (at 50 µM (top of the series)) 105% (inactive). This compound had a minimum viability under setting [3] of 82.6%.
Regarding `O=C(N/N=C/c1cc(Cl)cc([N+](=O)[O-])c1O)c1ccccc1NS(=O)(=O)c1cccs1`, the viability under setting [1] stood at 107% and the viability (at 50 µM (top of the series)) is 96.6% (inactive). Under setting [2], the minimum viability is 92.8%.
As for `O=C(O)CSCC(=O)N(Cc1ccccc1)c1nc(-c2ccccc2)c(-c2ccccc2)s1`, the viability under setting [1] is 121% and the viability (at 50 µM (top of the series)) is 89% (inactive). Where the note is “at 50 µM, stronger effect = lower value”, this compound showed a minimum viability of 89%.
In the case of `COc1cc(NS(=O)(=O)c2ccc(Nc3nc(-c4ccccc4)cs3)cc2)nc(OC)n1`, under setting [1], the viability came to 82.3%. Further, the minimum viability (at 50 µM, stronger effect = lower value) is 67.3%.
For the compound `O=C(CCCN1C(=O)/C(=C/c2cccs2)SC1=S)Nc1ccc(O)c(C(=O)O)c1`, under setting [1], the viability came out at 106%. The minimum viability (at 50 µM, stronger effect = lower value) is 62.3%.
Take `CC(C)(C)c1ccc2c(c1)OC(C(=O)N/N=C\c1ccc(-c3cccc(C(=O)O)c3)o1)CO2` (centres undefined): the viability is 105% under setting [1] and 87.8% (inactive) (at 50 µM (top of the series)). Further, the minimum viability (at 3.13 µM, stronger effect = lower value) was determined as 87.5%.
As for `CCOC(=O)c1sc(N2C(=O)C(O)=C(C(=O)c3ccco3)C2c2ccc([N+](=O)[O-])cc2)nc1C` (centres undefined), the viability under setting [1] came to 124% and the viability (at 50 µM (top of the series)) was 80.3% (inactive). Also, the minimum viability (at 50 µM, stronger effect = lower value) was 80.3%.
`COc1cc(/C=C2\C(=N)N3N=C(S(C)(=O)=O)SC3=NC2=O)cc(OC)c1OCCOc1cccc(C)c1`: the viability by setting is: under setting [1], 120%; (at 50 µM (top of the series)) 82.5% (inactive). For the setting “at 50 µM, stronger effect = lower value”, the minimum viability turned out to be 82.5%.
With `O=C(O)c1[nH]c2ccccc2c1C(c1cc(Br)ccc1O)c1c(C(=O)O)[nH]c2ccccc12`, the viability runs as follows: under setting [1], 82%; (at 50 µM (top of the series)) 85.4% (inactive). The compound also had a minimum viability (at 50 µM, stronger effect = lower value) of 85.4%.
Turning to `O=C(O)c1ccc(/C=N/NC(=O)c2ccc(CN3c4cccc5cccc(c45)S3(=O)=O)cc2)cc1`, the viability is, setting by setting: under setting [1], 93.3%; (at 50 µM (top of the series)) 85% (inactive). For the same compound, the minimum viability (at 6.25 µM, stronger effect = lower value) was found to be 83.3%.
Turning to `Cc1ccc(Cl)cc1N1CCN(C(=O)Cc2c(C(=O)O)[nH]c3ccc(Cl)cc23)CC1`, the viability is, setting by setting: under setting [1], 98.9%; (at 50 µM (top of the series)) 91.8% (inactive). Under setting [2], the minimum viability worked out at 85.7%.
Regarding `O=C(O)c1ccccc1-c1ccccc1C(=O)Nc1ccc(-c2nc3cc(Cl)ccc3o2)cc1`, the viability under setting [1] is 80.5%. In addition, the minimum viability (at 50 µM, stronger effect = lower value) was determined as 56.8%.
For the compound `O=C(O)/C(CC(=O)c1ccc(Cl)cc1)=N/Nc1ccc([N+](=O)[O-])cc1[N+](=O)[O-]`, the viability by setting is: under setting [1], 114%; (at 50 µM (top of the series)) 84% (inactive). Under “at 50 µM, stronger effect = lower value”, this compound gave a minimum viability of 84%.
With `O=C(CN1C(=O)S/C(=C\C=C\c2ccccc2)C1=O)Nc1ccccc1C(=O)O`, the viability is 103% under setting [1] and 90.4% (inactive) (at 50 µM (top of the series)). This compound also had a minimum viability under setting [2] of 83.6%.
Turning to `COc1cc(/C=N/Nc2ccc(Cl)c(C(=O)O)c2)ccc1OC(=O)c1ccc(F)cc1`, the viability is, setting by setting: under setting [1], 103%; (at 50 µM (top of the series)) 89.8% (inactive). The compound further gave a minimum viability (at 50 µM, stronger effect = lower value) of 89.8%.
For the compound `O=C1NN(c2ccc(Cl)c(Cl)c2)C(=O)/C1=C/c1ccc(-c2ccccc2C(=O)O)o1`, the viability runs as follows: under setting [1], 121%; (at 50 µM (top of the series)) 105% (inactive). The same compound returned a minimum viability under setting [3] of 89.7%.
Take `O=C(COc1ccc2ccccc2c1)Nc1cccc(C(=O)Nc2ccccc2C(=O)O)c1`: the viability reads like this: under setting [1], 101%; (at 50 µM (top of the series)) 83.3% (inactive). Further, where the note is “at 50 µM, stronger effect = lower value”, the minimum viability is 83.3%.
Regarding `O=C(O)c1ccc(Cl)c(S(=O)(=O)Nc2ccccc2C(=O)Nc2ccc(Cl)cc2)c1`, the viability was 92.9% under setting [1] and 82.6% (inactive) (at 50 µM (top of the series)). For the same compound, the minimum viability (at 50 µM, stronger effect = lower value) came out at 82.6%.
